Assay results as given in publication PMC10436550, “Subacute toxicity evaluations of LPM3480392 in rats, a full µ-opioid receptor biased agonist” (Frontiers in Pharmacology, 2023).

Key:
µ-opioid receptor (MOR) = system: µ-opioid receptor (MOR); design: method as in Yang et al., 2022; conditions: ref Yang et al., 2022, cited from earlier work
Sprague Dawley (SD) rats [1] = experiment: Histopathology, 4-week subacute toxicity study; type: in vivo, rat; conditions: for Epididymis: Cell debris, lumen, Grade: 1 (minimal), animals / Epididymis: Cell debris, lumen, Grade: 3 (moderate), animals / Epididymis: Cell debris, lumen, Total Incidence / Epididymis: Sperm, decreased, lumen, Grade: 4 (marked), animals / Epididymis: Sperm, decreased, lumen, Total Incidence / Testis: Degeneration, tubule, Grade: 2 (mild), animals / Testis: Degeneration, tubule, Total Incidence: M
Protocol: The tissues in the Table 2 were preserved in 10% neutral phosphate-buffered formalin. Bilateral eyes, optic nerves, testes, epididymides and Harderian glands were fixed in modified Davidson’s solution. For all the above tissues in all groups, sampling, paraffin embedding, sectioning and hematoxylin-eosin staining was performed, followed by histopathology examination microscopically with light microscopy.

Sprague Dawley (SD) rats [2] = experiment: Hematology, 4-week subacute toxicity study; conditions: female rats
[3] = 0.6 mg/kg/day, end of dosing phase, 10 examined
[4] = 1.2 mg/kg/day, end of dosing phase, 10 examined
[5] = 2.4 mg/kg/day, end of dosing phase, 9 examined
[6] = 0.6 mg/kg/day, End of dosing phase
[7] = 0.6 mg/kg/day, End of recovery phase
[8] = 1.2 mg/kg/day, End of dosing phase
[9] = 1.2 mg/kg/day, End of recovery phase
[10] = 2.4 mg/kg/day, End of dosing phase

In the case of Fc1ccc([C@]2(CCNCc3cccc(Cl)c3)CCO[C@]3(CCOC3)C2)nc1 [LPM3480392], the “Emax, in vitro biased agonism” value (µ-opioid receptor (MOR)) is listed as 91.4%, the EC50 (µ-opioid receptor (MOR); read-out: EC50, in vitro biased agonism) is listed as 0.35 nM and the “Epididymis: Cell debris, lumen, Grade: 1 (minimal), animals” value (“Epididymis … (minimal), animals” below) (Sprague Dawley (SD) rats [1]; [3]) is listed as 0. For the same compound, the “Epididymis: Cell debris, lumen, Grade: 3 (moderate), animals” value (shortened to “Epididymis … (moderate), animals”) (Sprague Dawley (SD) rats [1]; [3]) was 0, the “Epididymis: Cell debris, lumen, Total Incidence” value (Sprague Dawley (SD) rats [1]; [3]) was 0 and the “Epididymis: Sperm, decreased, lumen, Grade: 4 (marked), animals” value (from here on “Epididymis: Sperm, decreased … animals”) (Sprague Dawley (SD) rats [1]; [3]) was 0. The “Epididymis: Sperm, decreased, lumen, Total Incidence” value (Sprague Dawley (SD) rats [1]; [3]) was 0, the “Testis: Degeneration, tubule, Grade: 2 (mild), animals” value (“Testis: Degeneration, tubule, Grade” for short) (Sprague Dawley (SD) rats [1]; [3]) was 0 and the “Testis: Degeneration, tubule, Total Incidence” value (from here on “Testis … Total Incidence”) (Sprague Dawley (SD) rats [1]; [3]) was 0. The “Epididymis … (minimal), animals” value (Sprague Dawley (SD) rats [1]; [4]) was 0, the “Epididymis … (moderate), animals” value (Sprague Dawley (SD) rats [1]; [4]) was 0 and the “Epididymis: Cell debris, lumen, Total Incidence” value (Sprague Dawley (SD) rats [1]; [4]) was 0. The “Epididymis: Sperm, decreased … animals” value (Sprague Dawley (SD) rats [1]; [4]) was 0, the “Epididymis: Sperm, decreased, lumen, Total Incidence” value (Sprague Dawley (SD) rats [1]; [4]) was 0 and the “Testis: Degeneration, tubule, Grade” value (Sprague Dawley (SD) rats [1]; [4]) was 0. The “Testis … Total Incidence” value (Sprague Dawley (SD) rats [1]; [4]) was 0, the “Epididymis … (minimal), animals” value (Sprague Dawley (SD) rats [1]; [5]) was 1 and the “Epididymis … (moderate), animals” value (Sprague Dawley (SD) rats [1]; [5]) was 1. For the same compound, the “Epididymis: Cell debris, lumen, Total Incidence” value (Sprague Dawley (SD) rats [1]; [5]) was 2, the “Epididymis: Sperm, decreased … animals” value (Sprague Dawley (SD) rats [1]; [5]) was 1 and the “Epididymis: Sperm, decreased, lumen, Total Incidence” value (Sprague Dawley (SD) rats [1]; [5]) was 1. The “Testis: Degeneration, tubule, Grade” value (Sprague Dawley (SD) rats [1]; [5]) was 1, the “Testis … Total Incidence” value (Sprague Dawley (SD) rats [1]; [5]) was 1 and the “Microscopic changes in brain, heart, liver, spleen, lungs, kidney, adrenal gland, thymus, lymph node, gastrointestinal tract” value (Sprague Dawley (SD) rats [1]; end of dosing phase and recovery phase) was “no microscopic changes”. For the same compound, the “Mild tubular degeneration of the testis, incidence” value (Sprague Dawley (SD) rats [1]; males, 2.4 mg/kg/day, end of dosing phase) was 1/9, the LYM (Sprague Dawley (SD) rats [2]; [6]) was 4.17 ± 0.90 10^9/L and the LYM% (Sprague Dawley (SD) rats [2]; [6]) was 86.1 ± 5.8%. For the same compound, the MCV (Sprague Dawley (SD) rats [2]; [6]) was 58.1 ± 1.5 fL, the MONO (Sprague Dawley (SD) rats [2]; [6]) was 0.05 ± 0.02 10^9/L and the MONO% (Sprague Dawley (SD) rats [2]; [6]) was 1.1 ± 0.4 %. For the same compound, the NEU (Sprague Dawley (SD) rats [2]; [6]) was 0.51 ± 0.26 10^9/L, the NEU% (Sprague Dawley (SD) rats [2]; [6]) was 10.6 ± 5.5% and the PLT (Sprague Dawley (SD) rats [2]; [6]) was 1072 ± 103 10^9/L. For the same compound, the RBC (Sprague Dawley (SD) rats [2]; [6]) was 6.90 ± 0.35 10^12/L, the WBC (Sprague Dawley (SD) rats [2]; [6]) was 4.84 ± 0.93 10^9/L and the LYM (Sprague Dawley (SD) rats [2]; [7]) was 3.46 ± 0.53 10^9/L. The LYM% (Sprague Dawley (SD) rats [2]; [7]) was 85.8 ± 4.4 %, the MCV (Sprague Dawley (SD) rats [2]; [7]) was 56.4 ± 1.2 fL and the MONO (Sprague Dawley (SD) rats [2]; [7]) was 0.04 ± 0.02 10^9/L. The MONO% (Sprague Dawley (SD) rats [2]; [7]) was 1.1 ± 0.4 %, the NEU (Sprague Dawley (SD) rats [2]; [7]) was 0.42 ± 0.17^* 10^9/L and the NEU% (Sprague Dawley (SD) rats [2]; [7]) was 10.6 ± 4.8 %. The PLT (Sprague Dawley (SD) rats [2]; [7]) was 975 ± 144 10^9/L, the RBC (Sprague Dawley (SD) rats [2]; [7]) was 7.56 ± 0.22 10^12/L and the WBC (Sprague Dawley (SD) rats [2]; [7]) was 4.03 ± 0.57 10^9/L. The LYM (Sprague Dawley (SD) rats [2]; [8]) was 4.21 ± 1.29 10^9/L, the LYM% (Sprague Dawley (SD) rats [2]; [8]) was 85.7 ± 7.2% and the MCV (Sprague Dawley (SD) rats [2]; [8]) was 58.7 ± 2.1 fL. For the same compound, the MONO (Sprague Dawley (SD) rats [2]; [8]) was 0.05 ± 0.02 10^9/L, the MONO% (Sprague Dawley (SD) rats [2]; [8]) was 0.9 ± 0.3 % and the NEU (Sprague Dawley (SD) rats [2]; [8]) was 0.50 ± 0.24 10^9/L. For the same compound, the NEU% (Sprague Dawley (SD) rats [2]; [8]) was 11.1 ± 7.2%, the PLT (Sprague Dawley (SD) rats [2]; [8]) was 1064 ± 104 10^9/L and the RBC (Sprague Dawley (SD) rats [2]; [8]) was 6.59 ± 0.26^* 10^12/L. The WBC (Sprague Dawley (SD) rats [2]; [8]) was 4.87 ± 1.28 10^9/L, the LYM (Sprague Dawley (SD) rats [2]; [9]) was 2.95 ± 0.75 10^9/L and the LYM% (Sprague Dawley (SD) rats [2]; [9]) was 85.9 ± 3.0 %. For the same compound, the MCV (Sprague Dawley (SD) rats [2]; [9]) was 56.6 ± 1.8 fL, the MONO (Sprague Dawley (SD) rats [2]; [9]) was 0.04 ± 0.01 10^9/L and the MONO% (Sprague Dawley (SD) rats [2]; [9]) was 1.2 ± 0.4 %. For the same compound, the NEU (Sprague Dawley (SD) rats [2]; [9]) was 0.35 ± 0.08^* 10^9/L, the NEU% (Sprague Dawley (SD) rats [2]; [9]) was 10.6 ± 2.5 % and the PLT (Sprague Dawley (SD) rats [2]; [9]) was 975 ± 42 10^9/L. For the same compound, the RBC (Sprague Dawley (SD) rats [2]; [9]) was 7.44 ± 0.33 10^12/L, the WBC (Sprague Dawley (SD) rats [2]; [9]) was 3.42 ± 0.78 10^9/L and the LYM (Sprague Dawley (SD) rats [2]; [10]) was 2.53 ± 0.59 10^9/L. For the same compound, the LYM% (Sprague Dawley (SD) rats [2]; [10]) was 81.1 ± 5.3% and the MCV (Sprague Dawley (SD) rats [2]; [10]) was 58.1 ± 1.9 fL.
